From the NIST ThermoML archive (doi:10.1016/j.jct.2012.09.028)

Conditions: 101.33 kPa, Crystal, Vacuum adiabatic calorimetry

O=C[C@H](O)[C@@H](O)[C@H](O)CO [D-xylose]
Conditions | molar entropy [J/K/mol]
0.5 K | 0.0002783
1 K | 0.0007579
1.5 K | 0.001652
2 K | 0.003197
2.5 K | 0.005661
3 K | 0.009356
3.5 K | 0.01464
4 K | 0.02194
4.5 K | 0.0317
5 K | 0.04448
5.5 K | 0.06082
6 K | 0.08137
6.5 K | 0.1068
7 K | 0.1377
7.5 K | 0.1749
8 K | 0.219
8.5 K | 0.2706
9 K | 0.3303
9.5 K | 0.3987
10 K | 0.4763
11 K | 0.6598
12 K | 0.8803
13 K | 1.138
14 K | 1.432
15 K | 1.761
16 K | 2.122
17 K | 2.515
18 K | 2.935
19 K | 3.383
20 K | 3.854
25 K | 6.505
30 K | 9.489
35 K | 12.65
40 K | 15.88
45 K | 19.14
50 K | 22.41
55 K | 25.66
60 K | 28.89
65 K | 32.12
70 K | 35.35
75 K | 38.56
80 K | 41.77
85 K | 44.96
90 K | 48.15
95 K | 51.33
100 K | 54.5
110 K | 60.81
120 K | 67.1
130 K | 73.34
140 K | 79.56
150 K | 85.75
160 K | 91.91
170 K | 98.05
180 K | 104.16
190 K | 110.25
200 K | 116.32
210 K | 122.38
220 K | 128.42
230 K | 134.45
240 K | 140.47
250 K | 146.47
260 K | 152.47
270 K | 158.46
273.15 K | 160.35
280 K | 164.44
290 K | 170.42
298.15 K | 175.29
300 K | 176.4
